According to ChEMBL document CHEMBL5303573, “Mapping human microbiome drug metabolism by gut bacteria and their genes” (Nature, 2019):

What was measured:
[1] = The drug is tested on Collinsella intestinalis strain: DSM13280 for biotransformation. The drug concentrations were measured before and after a 12-h incubation by liquid-chromatography-coupled mass spectrometry (LC–MS); settings: 2 µM
[2] = The drug is tested on Odoribacter splanchnicus strain: fecal isolate for biotransformation. The drug concentrations were measured before and after a 12-h incubation by liquid-chromatography-coupled mass spectrometry (LC–MS); settings: 2 µM
[3] = The drug is tested on Eubacterium ventriosum strain: ATCC27560 for biotransformation. The drug concentrations were measured before and after a 12-h incubation by liquid-chromatography-coupled mass spectrometry (LC–MS); type: ADME; set-up: dose 2 uM, timepoint 0 vs 12 hours; settings: 2 µM
[4] = segatella copri, 12 h, 2 µM
Description: The drug is tested on Prevotella copri strain: DSM18205 for biotransformation. The drug concentrations were measured before and after a 12-h incubation by liquid-chromatography-coupled mass spectrometry (LC–MS)

[5] = enterocloster bolteae, 12 h, 2 µM
Description: The drug is tested on Clostridium bolteae strain: ATCCBAA-613 for biotransformation. The drug concentrations were measured before and after a 12-h incubation by liquid-chromatography-coupled mass spectrometry (LC–MS)

[6] = The drug is tested on Eubacterium hallii strain: DSM3353 for biotransformation. The drug concentrations were measured before and after a 12-h incubation by liquid-chromatography-coupled mass spectrometry (LC–MS); settings: anaerobutyricum hallii, 2 µM
[7] = The drug is tested on Bacteroides pectinophilus strain: ATCC43243 for biotransformation. The drug concentrations were measured before and after a 12-h incubation by liquid-chromatography-coupled mass spectrometry (LC–MS); settings: 2 µM
[8] = The drug is tested on Coprococcus comes strain: ATCC27758 for biotransformation. The drug concentrations were measured before and after a 12-h incubation by liquid-chromatography-coupled mass spectrometry (LC–MS); type: ADME; set-up: dose 2 uM, timepoint 0 vs 12 hours; settings: 2 µM
[9] = The drug is tested on Subdoligranulum variabile strain: DSM15176 for biotransformation. The drug concentrations were measured before and after a 12-h incubation by liquid-chromatography-coupled mass spectrometry (LC–MS); settings: 2 µM
[10] = The drug is tested on Enterococcus faecalis strain: V583 for biotransformation. The drug concentrations were measured before and after a 12-h incubation by liquid-chromatography-coupled mass spectrometry (LC–MS); settings: 2 µM
[11] = The drug is tested on Bacteroides cellulosilyticus strain: DSM14838 for biotransformation. The drug concentrations were measured before and after a 12-h incubation by liquid-chromatography-coupled mass spectrometry (LC–MS); settings: 2 µM
[12] = The drug is tested on Collinsella aerofaciens strain: ATCC25986 for biotransformation. The drug concentrations were measured before and after a 12-h incubation by liquid-chromatography-coupled mass spectrometry (LC–MS); settings: 2 µM
[13] = The drug is tested on Ruminococcus lactaris strain: ATCC29176 for biotransformation. The drug concentrations were measured before and after a 12-h incubation by liquid-chromatography-coupled mass spectrometry (LC–MS); settings: 2 µM
[14] = The drug is tested on Blautia hansenii strain: DSM20583 for biotransformation. The drug concentrations were measured before and after a 12-h incubation by liquid-chromatography-coupled mass spectrometry (LC–MS); settings: 2 µM
[15] = The drug is tested on Bacteroides dorei strain: DSM17855 for biotransformation. The drug concentrations were measured before and after a 12-h incubation by liquid-chromatography-coupled mass spectrometry (LC–MS); settings: phocaeicola dorei, 2 µM
[16] = The drug is tested on Clostridium scindens strain: ATCC35704 for biotransformation. The drug concentrations were measured before and after a 12-h incubation by liquid-chromatography-coupled mass spectrometry (LC–MS); settings: 2 µM
[17] = The drug is tested on Escherichia coli strain: BW25113 for biotransformation. The drug concentrations were measured before and after a 12-h incubation by liquid-chromatography-coupled mass spectrometry (LC–MS); settings: 2 µM
[18] = The drug is tested on Bacteroides fragilis strain: HMW610 for biotransformation. The drug concentrations were measured before and after a 12-h incubation by liquid-chromatography-coupled mass spectrometry (LC–MS); settings: 2 µM
[19] = The drug is tested on Eubacterium rectale strain: ATCC33656 for biotransformation. The drug concentrations were measured before and after a 12-h incubation by liquid-chromatography-coupled mass spectrometry (LC–MS); settings: agathobacter rectalis, 2 µM
[20] = The drug is tested on Bacteroides fragilis strain: ATCC43859 for biotransformation. The drug concentrations were measured before and after a 12-h incubation by liquid-chromatography-coupled mass spectrometry (LC–MS); settings: 2 µM

Compound | Bacterial Biotransformation [1] | Bacterial Biotransformation [2] | Bacterial Biotransformation [3] | Bacterial Biotransformation [4] | Bacterial Biotransformation [5] | Bacterial Biotransformation [6] | Bacterial Biotransformation [7] | Bacterial Biotransformation [8] | Bacterial Biotransformation [9] | Bacterial Biotransformation [10] | Bacterial Biotransformation [11] | Bacterial Biotransformation [12] | Bacterial Biotransformation [13] | Bacterial Biotransformation [14] | Bacterial Biotransformation [15] | Bacterial Biotransformation [16] | Bacterial Biotransformation [17] | Bacterial Biotransformation [18] | Bacterial Biotransformation [19] | Bacterial Biotransformation [20]
Cc1ccc(S(=O)(=O)NC(=O)NN2CC3CCCC3C2)cc1 (stereo not given) [GLICLAZIDE] | Compound NOT metabolized | Compound NOT metabolized | Compound NOT metabolized | Compound NOT metabolized | Compound NOT metabolized | Compound NOT metabolized | Compound NOT metabolized | Compound NOT metabolized | Compound NOT metabolized | Compound NOT metabolized | Compound NOT metabolized | Compound NOT metabolized | Compound NOT metabolized | Compound NOT metabolized | Compound metabolized | Compound NOT metabolized | Compound NOT metabolized | Compound metabolized | Compound NOT metabolized | Compound metabolized
CC(=O)O[C@]1(C(C)=O)CC[C@H]2[C@@H]3C=C(C)C4=CC(=O)CC[C@]4(C)[C@H]3CC[C@@]21C [MEGESTROL ACETATE] | Compound NOT metabolized | Compound metabolized | Compound NOT metabolized | Compound NOT metabolized | Compound NOT metabolized | Compound NOT metabolized | Compound NOT metabolized | Compound NOT metabolized | Compound NOT metabolized | Compound NOT metabolized | Compound NOT metabolized | Compound metabolized | Compound NOT metabolized | Compound metabolized | Compound metabolized | Compound metabolized | Compound metabolized | Compound metabolized | Compound NOT metabolized | Compound metabolized
